The source of these data is ChEMBL document CHEMBL6178014, “Discovery and Administration Optimization of Novel Selective CDK9 Inhibitor, 1-7a-B1, for Improved Pharmacokinetics and Antitumor Efficacy In Vivo” (J Med Chem, 2025).

Data set [1] has as its system HCT-116. Nature of the data set: Induction of ROS accumulation in human HCT-116 cells at 100 to 400 nM incubated for 48 hrs by […] staining based flow cytometry analysis. The class given is functional, cell-based. The note with it: dose 100-400 nM.
Data set [2] relates to HCT-116. Briefly: Downregulation of Mcl-1 mRNA level in human HCT-116 cells at 200 to 400 nM incubated for 48 hrs by qRT-PCR analysis. The class given is functional, cell-based. As to conditions: dose 200-400 nM. Background: In qPCR the cycle at which signal appears reflects the starting amount.
The nature of data set [3]: Toxicity in female BALB/c nu-nu mouse xenografted with human HCT-116 cells assessed as histopathological changes in kidney at 20 mg/kg, po as submicron emulsion administered once daily for 3 weeks by H and E staining based analysis. As to conditions: in vivo, 504 h. In kind it is organism-based.
Data set [4] concerns HCT-116. Briefly: Antitumor activity against human HCT-116 cells xenografted in female BALB/c nu-nu mouse assessed as tumor growth inhibition at 20 mg/kg, po as submicron emulsion administered once daily for 3 weeks by vernier caliper analysis. In kind it is functional, organism-based.
The target of data set [5] is CYP3A4 (Homo sapiens, UniProt P08684). Nature of the data set: Inhibition of CYP3A4 in human liver microsome at 10 uM pre-incubated with compound for 10 mins in presence of NADPH-regenerating system by LC-MS/MS analysis relative to control. The note with it: liver microsomes. The class given is ADME.
Chain of CYP3A4 (P08684 whole entry): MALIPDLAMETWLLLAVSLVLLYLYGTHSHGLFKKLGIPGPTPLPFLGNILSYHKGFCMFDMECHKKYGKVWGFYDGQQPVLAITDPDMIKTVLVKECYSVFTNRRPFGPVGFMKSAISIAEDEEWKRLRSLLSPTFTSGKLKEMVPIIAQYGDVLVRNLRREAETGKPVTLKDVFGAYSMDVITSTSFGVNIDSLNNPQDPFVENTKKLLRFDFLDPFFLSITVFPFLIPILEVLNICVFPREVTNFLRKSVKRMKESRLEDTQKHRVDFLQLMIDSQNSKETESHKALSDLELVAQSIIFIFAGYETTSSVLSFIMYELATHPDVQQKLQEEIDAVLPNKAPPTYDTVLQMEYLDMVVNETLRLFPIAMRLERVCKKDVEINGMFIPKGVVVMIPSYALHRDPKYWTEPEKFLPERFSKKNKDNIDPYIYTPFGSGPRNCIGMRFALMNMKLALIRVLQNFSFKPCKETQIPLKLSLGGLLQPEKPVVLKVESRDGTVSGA
Data set [6] addresses CDK9/cyclin T1 (Homo sapiens, UniProt P50750). Briefly: Inhibition of His-tagged full length human recombinant CDK9/cyclinT1 using KTFCGTPEYLAPEVRREPRILSEEEQEMFRDFDYIADWC as substrate incubated for 60 mins by ADP-Glo kinase assay. The class given is protein-complex assay. Background: ADP-Glo turns the ADP formed in a reaction into a luminescent signal.
For data set [7], the system named is HCT-116. Nature of the data set: Induction of apoptosis in human HCT-116 cells assessed as increase in caspase-3 activity at 100 to 200 nM incubated for 48 hrs by GreenNuc substrate based flow cytometry analysis. The class given is functional, cell-based. As to conditions: dose 100-200 nM. (A flow cytometer gives signals particle by particle.)
The nature of data set [8]: Half life in Sprague-Dawley rat at 30 mg/kg, po measured after 24 hrs by LC-MS/MS analysis. As to conditions: in vivo. In kind it is ADME, organism-based.
The nature of data set [9]: Cmax in Sprague-Dawley rat at 30 mg/kg, po as submicron emulsion measured after 24 hrs by LC-MS/MS analysis. The class given is ADME, organism-based. As to conditions: in vivo.
Data set [10] has as its system HCT-116. Nature of the data set: Downregulation of c-Myc level in human HCT-116 cells at 200 to 400 nM incubated for 48 hrs by Western blot analysis. In kind it is functional, cell-based. As to conditions: dose 200-400 nM.
The nature of data set [11]: MRT (infinity) in Sprague-Dawley rat at 2 mg/kg, iv measured after 24 hrs by LC-MS/MS analysis. The note with it: in vivo. In kind it is ADME, organism-based.
Data set [12] in a line: MRT (infinity) in Sprague-Dawley rat at 30 mg/kg, po measured after 24 hrs by LC-MS/MS analysis. The class given is ADME, organism-based. As to conditions: in vivo.
Data set [13] in a line: Oral bioavailability in Sprague-Dawley rat at 30 mg/kg measured after 24 hrs by LC-MS/MS analysis. As to conditions: in vivo. The class given is ADME, organism-based.
The nature of data set [14]: Oral bioavailability in Sprague-Dawley rat at 30 mg/kg as submicron emulsion measured after 24 hrs by LC-MS/MS analysis. The class given is ADME, organism-based. The note with it: in vivo.
Data set [15] concerns PANC-1. Briefly: Cytotoxicity against human PANC-1 cells assessed as cell viability incubated for 48 hrs by CCK8 assay. The class given is functional, cell-based.
The subject of data set [16] is HCT-116. Briefly: Induction of apoptosis in human HCT-116 cells assessed as increase in caspase-3 cleavage incubated for 48 hrs by Western blot analysis. The class given is functional, cell-based. As to conditions: dose 100-400 nM.
The nature of data set [17]: Toxicity in female BALB/c nu-nu mouse xenografted with human HCT-116 cells assessed as histopathological changes in kidney at 40 mg/kg, po administered once daily for 3 weeks by H and E staining based analysis. The class given is organism-based. The note with it: in vivo, 504 h.
Data set [18] can be described thus: AUC (0 to infinity) in Sprague-Dawley rat at 30 mg/kg, po measured after 24 hrs by LC-MS/MS analysis. In kind it is ADME, organism-based. The note with it: in vivo.
Data set [19] deals with HCT-116. Nature of the data set: Antitumor activity against human HCT-116 cells xenografted in female BALB/c nu-nu mouse assessed as reduction in Ki67 positive cells at 20 mg/kg, po as submicron emulsion by staining based analysis. In kind it is functional, organism-based.
In data set [20] the target is E3 ubiquitin-protein ligase Mdm2 (Homo sapiens) (UniProt Q00987). Nature of the data set: Inhibition of MDM2 phosphorylation at ser166 residue in human HCT-116 cells at 100 to 400 nM incubated for 48 hrs by Western blot analysis. In kind it is cell-based. As to conditions: dose 100-400 nM.
Chain of E3 ubiquitin-protein ligase Mdm2 (Homo sapiens) (Q00987 whole entry, looked up): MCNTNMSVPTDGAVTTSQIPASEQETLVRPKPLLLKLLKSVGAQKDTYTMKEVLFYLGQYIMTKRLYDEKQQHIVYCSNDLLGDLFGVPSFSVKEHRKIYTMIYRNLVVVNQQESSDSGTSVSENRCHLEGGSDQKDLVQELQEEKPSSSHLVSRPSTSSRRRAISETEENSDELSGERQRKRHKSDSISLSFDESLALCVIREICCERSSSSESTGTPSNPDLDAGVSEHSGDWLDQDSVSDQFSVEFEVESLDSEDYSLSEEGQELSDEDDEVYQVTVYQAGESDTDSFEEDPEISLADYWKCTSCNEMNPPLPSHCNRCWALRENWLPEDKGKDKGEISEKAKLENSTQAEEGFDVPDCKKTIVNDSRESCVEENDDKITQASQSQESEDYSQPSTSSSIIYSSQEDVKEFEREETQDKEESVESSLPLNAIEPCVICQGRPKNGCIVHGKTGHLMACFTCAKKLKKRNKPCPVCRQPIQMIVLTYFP
Data set [21] is described as follows: Stability in human plasma assessed as half life at 100 uM measured up to 120 mins by LC-MS/MS analysis. The class given is ADME, cell-free.

Calls of active or inactive are those of the source.

Chain of CDK9/cyclin T1 (O60563 whole entry): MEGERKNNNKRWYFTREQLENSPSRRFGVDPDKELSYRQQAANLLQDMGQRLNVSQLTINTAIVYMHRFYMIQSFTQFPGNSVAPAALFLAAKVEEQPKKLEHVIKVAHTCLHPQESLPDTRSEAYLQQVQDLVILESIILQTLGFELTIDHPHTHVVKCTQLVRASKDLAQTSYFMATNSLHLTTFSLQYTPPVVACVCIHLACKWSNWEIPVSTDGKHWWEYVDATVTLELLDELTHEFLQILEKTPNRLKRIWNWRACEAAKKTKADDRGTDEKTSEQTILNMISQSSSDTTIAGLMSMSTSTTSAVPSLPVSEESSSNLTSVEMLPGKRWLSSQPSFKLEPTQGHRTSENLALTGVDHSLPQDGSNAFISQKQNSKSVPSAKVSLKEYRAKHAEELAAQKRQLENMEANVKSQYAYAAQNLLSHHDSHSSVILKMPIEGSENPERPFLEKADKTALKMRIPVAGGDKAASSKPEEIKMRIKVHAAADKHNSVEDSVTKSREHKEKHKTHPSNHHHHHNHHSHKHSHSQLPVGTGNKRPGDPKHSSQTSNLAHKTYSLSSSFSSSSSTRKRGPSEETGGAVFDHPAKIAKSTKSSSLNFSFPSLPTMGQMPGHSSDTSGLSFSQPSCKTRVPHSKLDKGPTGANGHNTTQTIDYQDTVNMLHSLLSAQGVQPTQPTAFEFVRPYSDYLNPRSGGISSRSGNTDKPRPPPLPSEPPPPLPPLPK
Chain of CDK9/cyclin T1 (P50750 whole entry): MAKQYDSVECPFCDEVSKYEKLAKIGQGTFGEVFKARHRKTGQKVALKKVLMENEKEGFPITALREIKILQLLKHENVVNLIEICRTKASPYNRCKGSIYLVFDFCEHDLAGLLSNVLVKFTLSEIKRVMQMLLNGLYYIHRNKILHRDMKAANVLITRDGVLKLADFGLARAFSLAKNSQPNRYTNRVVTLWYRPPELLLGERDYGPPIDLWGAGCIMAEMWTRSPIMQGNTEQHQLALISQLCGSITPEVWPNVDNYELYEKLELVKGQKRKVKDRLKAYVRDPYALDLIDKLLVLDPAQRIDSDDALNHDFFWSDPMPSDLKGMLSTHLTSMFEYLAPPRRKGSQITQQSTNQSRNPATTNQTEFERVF

As for `CC(C)Oc1cc(F)ccc1-c1ccnc(NC(=O)Nc2cccc(C(=O)N3CCN(C)CC3)c2)c1`, the outcome in data set [1], in data set [2], in data set [4], in data set [7], in data set [10] and in data set [15] was Active. Also, the outcome in data set [19] was Active. In addition, the Activity entry in [3] is “Non-toxic”; in data set [16], “Dose-dependent-effect”; in data set [17] it was “Non-toxic”. The inhibition (as a rule, the relative decrease from the control value, in per cent) at 10 µM in data set [5] turned out to be 5.2%. In addition, the concentration for half-maximal inhibition (IC50) (commonly the concentration that gives 50% inhibition) in [6] came out at 6.51 nM. For the same molecule, the half-life (as a rule, the time needed for the level to fall by half in the phase considered) in data set [8] was 47 min. For the same molecule, in [9], the peak level (Cmax) was 1020 ng/mL. For the same molecule, the mean residence time MRT inf (usually a mean duration of stay, worked out from the concentration-time curve) amounted to 20.1 min in data set [11] and 87 min in data set [12]. For the same molecule, the bioavailability (as a rule, dose-corrected exposure relative to a reference, in per cent) in data set [13] came to 14.7%; in [14] it was 26.4%. Also, the area under the curve (AUC) (commonly concentration integrated over time) in data set [18] came to 900 ng·h/mL. Also, the inhibition entry in data set [20] was “Active”. Also, the half-life at 100 µM in [21] was more than 289 min.
